In patent publication US20240208972A1, “LRRK2 INHIBITORS AND USES THEREOF” (NEURON23, INC., priority 2022, published 2024):
pIC50: −log10 of the molar value.

Experiments:
Caco-2 cells = experiment: Caco-2 bidirectional permeability; assay type: in vitro ADME; settings: for Caco-2 A2B (10^−6 cm/s): A to B; for Caco-2 A2B (10^−6 cm/s) / Caco-2 B2A (10^−6 cm/s): HBSS pH 7.4, 2 hours; for Caco-2 B2A (10^−6 cm/s): B to A; for Caco-2 ER: Efflux Ratio=Papp (BA)/Papp (AB)
Description: The compounds disclosed herein were tested in vitro on CaCo2 cell penetration according to the following procedures.
Test compounds were prepared in dimethyl sulfoxide (DMSO).
Caco-2 cells purchased from ATCC were seeded onto […] (PET) in 96-well Corning Insert plates at 1×10^5 cells/cm^2. The media were refreshed every 4 to 5 days until the 21st to 28th day for confluent cell monolayer formation.
Experiments were run in duplicate using a HBSS transport buffer containing 10 mM HEPES at pH 7.4. The test article TEST COMPOUND was tested bi-directionally at […] concentrations, the control compound digoxin was tested bi-directionally at 10 μM, and nadolol and metoprolol were tested at 2.0 μM in the A to B direction. Final DMSO concentrations were adjusted to less than 1%. The plates were incubated for 2 hours in a CO2 incubator at 37±1° C. with 5% CO2 at saturated humidity without shaking. Following incubation, samples were mixed with acetonitrile containing internal standard and centrifuged at 3200×g for 10 minutes. Then 200 μL of supernatant was taken from all samples. For TEST COMPOUND and digoxin, the supernatant was diluted with 200 μL of ultra-pure water and for nadolol and metoprolol, the supernatant was diluted with 600 μL of ultra-pure water. All samples were analyzed by LC-MS/MS. Concentrations of TEST COMPOUND and control compounds were determined in starting solutions, donor well solutions, and receiver well solutions using peak area ratios (PAR) of analyte to internal standard. After the transport assay, a lucifer yellow rejection assay was run to determine the Caco-2 cell monolayer integrity.
The apparent permeability (Papp), the % recovery and the efflux ratio were calculated as follows: • 1. Papp=(dCr/dt)×Vr/(A×C0) • 2. % Recovery=100×[(Vr×Cr)+(Vd×Cd)]/(Vd×C0) • 3. Efflux Ratio=Papp (BA)/Papp (AB) • Where: • dCr/dt is the slope of the cumulative concentration in the receiver compartment versus time (mM/s). • Vr and Vd is the volume in the receiver and donor compartments (0.075 mL on the apical side, 0.25 mL on the basolateral side), respectively. • A is the surface area of the cell monolayer (0.0804 cm^2). • C0 is the measured donor concentrations (μM) at the beginning of the experiment. • Cd and Cr are the final measured concentrations in the donor and receiver compartments, respectively.
The cell monolayer tight junction integrity assay was conducted after completion of the transport assay by adding Lucifer Yellow (LY) to the apical wells at 100 μM and incubating the cells for 30 minutes. Following incubation, tight junction integrity was assessed from LY concentrations in the basolateral compartment (receiver well) and the apical compartment (donor well) using fluorescence detection as follows: […]

[1] = Human liver microsomal clearance (hLM Cl); assay type: in vitro ADME; settings: cells marked *
[2] = biological target: T1, wt human LRRK2, catalytic site (Homo sapiens, UniProt Q5S007); experiment: TR-FRET LanthaScreen Tb Kinase Activity Assay, LRRK2 kinase inhibition; assay type: biochemical; settings: 2 nM wt human LRRK2, 400 nM peptide, 38 μM ATP
T1 construct: wt human LRRK2, catalytic site, catalytic site (ThermoFisher/USA); purchased ThermoFisher
T1 sequence (Q5S007 1879-2138 limits assumed): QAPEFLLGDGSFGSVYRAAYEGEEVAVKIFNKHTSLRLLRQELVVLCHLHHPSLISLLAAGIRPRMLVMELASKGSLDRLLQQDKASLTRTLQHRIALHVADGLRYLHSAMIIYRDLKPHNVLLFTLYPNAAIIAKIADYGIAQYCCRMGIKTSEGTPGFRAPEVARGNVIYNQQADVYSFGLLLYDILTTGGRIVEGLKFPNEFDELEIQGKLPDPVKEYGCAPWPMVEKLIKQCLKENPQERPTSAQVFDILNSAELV
Description: The compounds disclosed herein were tested for their inhibitory effect on LRRK2 kinase according to the following procedures.
The protocol for basic TR-FRET LanthaScreen Tb Kinase Activity Assay inhibitor studies is as follows. LanthaScreen Kinase Activity Assays (ThermoFisher/USA) to evaluate inhibitors were performed by addition of 100 nL of test compound in the corresponding DMSO dilutions/5 L of kinase/fluorescein-ERM(LRRKtide) peptide mixture, Compound & kinase were pre-incubated for 15 minutes, then 5 μl of ATP into 384 well small volume plates. After incubation for 120 minutes at room temperature, the detection reagents containing Tb-anti-pLRRKtide antibody were added to monitor the phosphrylation level of peptide. Then, after 60 min minutes incubation at room temperature plates were read in Envision. Data analysis of emission ratios was according to the LanthaScreen Tb Kinase Activity Assay protocol.
Kinase and assay components were adjusted to final concentrations according to the kit protocol. For LRRK2: 2 nM wt human LRRK2, catalytic site, catalytic site (ThermoFisher/USA), 400 nM peptide, 38 μM ATP in 1× Kinase Buffer A.
Basic protocol for TR-FRET LanthaScreen Tb Kinase Activity Assay inhibitor studies involved two steps: Enzymatic step: Addition of 100 nl of test compound in corresponding DMSO dilutions, 5 μl of kinase/substrate mixture, 5 μl of ATP into 384 well small volume plates. Incubation for 120 minutes at room temperature.
Detection step: Addition of 10 μl EDTA & antibody, read plate after 60 minutes. Data analysis of emission ratios according to KinEASE assay protocol.
Kinase and assay components were adjusted to final concentrations according to the kit protocol.

[3] = Human hepatocyte stability, in vitro h-Hept CLpredict; assay type: in vitro ADME; settings: cryopreserved hepatocytes, predicted hepatic clearance, cells without asterisk, read-out: hHep Cl
Description: The compounds disclosed herein were tested in vitro on human hepatocyte for in vitro h-Hept CLpredict according to the following procedures. • 1. Compound sock solutions were prepared by dissolving test compound and positive control in dimethyl sulfoxide (DMSO) at a concentration of 10 mM. Stock solutions were then diluted to 100 μM solutions by combining 198 μL of 50% acetonitrile/50% water with 2 μL of the 10 mM stock stock in separate conical tubes. • 2. Cryopreserved hepatocytes were prepared as follows: Incubation medium (William's E Medium supplemented with GlutaMAX) and hepatocyte thawing medium were placed in a 37° C. water bath and allowed to warm for at least 15 minutes prior to use. Cryopreserved hepatocytes were removed from storage, ensuring that vials remained at cryogenic temperatures until thawed. Cells were thawed by placing the vials in a 37° C. water bath and gently shaking the vials for 2 minutes. After thawing was completed, vials were sprayed with 70% ethanol and transferred to a biosafety cabinet. Hepatocytes were transferred into 50 mL conical tube containing thawing medium using wide-bore pipette tips. Tubes were placed into a centrifuge and spun at 100 g for 10 minutes. Then thawing medium was aspirated and hepatocytes were resuspended in enough incubation medium to yield−1.5×10^6 cells/mL. Cells were counted using acridine orange and propidium iodide (AO/PI) staining, and the viable cell density was determined. Cells were diluted with incubation medium to a working cell density of 0.5×10^6 viable cells/mL. • 3. To determine hepatocyte stability, 198 μL of hepatocytes were transferred into each well of a 96-well non-coated plate. Plates were placed in an incubator to allow the hepatocytes to warm for 10 minutes. • 4. The reaction was started by transferring 2 μL of the 100 μM test compound or positive control solution into respective wells of the 96-well non-coated plates. Plates were returned to the incubator until 25 μL aliquots of well contents were sampled at time points of 0, 15, 30, 60, 90 and 120 minutes. The aliquots were then mixed with 6 volumes (150 μL) of acetonitrile containing internal standard, IS (100 nM alprazolam, 200 nM caffeine and 100 nM tolbutamide) to terminate the reaction and vortexed for 5 minutes. After centrifuging the samples for 45 minutes at 3,220 g, aliquots of 100 μL of the supernatant were taken and diluted with 100 μL of ultra-pure water. The mixture was used for LC/MS/MS analysis. All incubations were performed in duplicate.
All calculations were carried out using Microsoft Excel. Peak area ratios (PAR) were determined from extracted ion chromatograms. The in vitro half-life (t1/2) of parent compound was determined by regression analysis of the percent parent disappearance vs. time curve as follows:
The in vitro half-life (in vitro t1/2) was determined from the slope value:
Conversion of the in vitro t1/2 (in minutes) into the in vitro intrinsic clearance (in vitro CLint, in μL/min/1×10^6 cells) was done using the following equation (mean of duplicate determinations): […]
The scaled-up intrinsic clearance (CLint, mL/min/kg), predicted hepatic clearance (CLH, mL/min/kg) and hepatic extraction ratio (ER) were calculated using the following equations:
CLint=(0.693/t1/2)*(1/(hepatocyte concentration (0.5*10^6 cells/mL))*scaling factors (Table (A)
• CLHept-predict=(QH*Scaled-up CLint*fub)/(QH+Scaled-up CLint*fub) • ER=CLH/QH • Where: • V=incubation volume (0.2 mL) • N=number of hepatocytes per well (0.1*10^6 cells) • QH=hepatic blood flow (mL/min/kg) (Table (A)
• fub=fraction of unbound drug in plasma, assumed to be 1 • Values used for calculation of the predicted hepatic clearance parameters data processing rules are outlined in the following tables (A) (B)

Row | Caco-2 B2A (10^−6 cm/s) (Caco-2 cells) | Caco-2 ER (Caco-2 cells) | pIC50 [2] | CLhep predicted at 1 µM [3] [mL/min/kg] | SMILES | Caco-2 A2B (10^−6 cm/s) (Caco-2 cells) | hLM Cl (mL/min/kg) [1]
1 | H (H (High permeability)”: A2B (B2A)>5) | N (N (Non-substrate)”: ER<2.5) | > 8.70 |  | Cc1n[nH]c2c1N=C(c1c(F)cccc1F)Nc1c-2cc(C2CCOCC2)nc1C [Example 38, 8-(2,6-difluorophenyl)-5,11-dimethyl-13-tetrahydropyran-4-yl-3,4,7,9,12-pentazatricyclo[8.4.0.02,6]tetradeca-1(10),2(6),4,7,11,13-hexaene] | H (H (High permeability)”: A2B (B2A)>5) | I* (I (Intermediate C1)”: 6.3 mL/min/kg≤Hep Cl≤14.7 mL/min/kg)
2 | H (H (High permeability)”: A2B (B2A)>5) | N (N (Non-substrate)”: ER<2.5) | > 8.70 | 6.3 to 14.7 | CCOC[C@H]1CN(c2cc3c(c(C)n2)NC(c2c(F)cccc2F)=Nc2c(C)n[nH]c2-3)CCO1 [Example 51, (R)-4-(5-(2,6-difluorophenyl)-3,7-dimethyl-1,6-dihydropyrazolo[4,3-d]pyrido[4,3-f][1,3]diazepin-9-yl)-2-(ethoxymethyl)morpholine] | M (M (Moderate permeability)”: 1≤A2B (B2A)≤5) | 
3 | H (H (High permeability)”: A2B (B2A)>5) | N (N (Non-substrate)”: ER<2.5) | > 8.70 |  | Cc1n[nH]c2c1N=C(c1c(F)cccc1F)Nc1c-2cc(N2CCN(C)[C@H](C(F)(F)F)C2)nc1C (single isomer, unassigned) [Example 36] | H (H (High permeability)”: A2B (B2A)>5) | I* (I (Intermediate C1)”: 6.3 mL/min/kg≤Hep Cl≤14.7 mL/min/kg)
4 | L (L (Low permeability)”: A2B(B2A)<1) | N (N (Non-substrate)”: ER<2.5) | 7.00 to 8.70 |  | Cc1n[nH]c2c1N=C(c1c(F)cccc1F)Nc1c-2cc(N2CCOCC2)nc1C(F)(F)F [Example 4, 4-[8-(2,6-difluorophenyl)-5-methyl-11-(trifluoromethyl)-3,4,7,9,12-pentazatricyclo[8.4.0.02,6]tetradeca-1(10),2(6),4,7,11,13-hexaen-13-yl]morpholine] | M (M (Moderate permeability)”: 1≤A2B (B2A)≤5) | I* (I (Intermediate C1)”: 6.3 mL/min/kg≤Hep Cl≤14.7 mL/min/kg)
5 | H (H (High permeability)”: A2B (B2A)>5) | N (N (Non-substrate)”: ER<2.5) | > 8.70 | 6.3 to 14.7 | Cc1n[nH]c2c1N=C(c1c(F)cccc1F)Nc1c-2cc(N2CCOCC2)nc1C(F)F [Example 44, 4-(7-(difluoromethyl)-5-(2,6-difluorophenyl)-3-methyl-1,6-dihydropyrazolo[4,3-d]pyrido[4,3-f][1,3]diazepin-9-yl)morpholine] | H (H (High permeability)”: A2B (B2A)>5) | 

Row | SMILES | Caco-2 B2A (10^−6 cm/s) (Caco-2 cells) | Caco-2 ER (Caco-2 cells) | pIC50 [2] | CLhep predicted at 1 µM [3] [mL/min/kg] | Caco-2 A2B (10^−6 cm/s) (Caco-2 cells) | hLM Cl (mL/min/kg) [1]
6 | Cc1n[nH]c2c1N=C(c1c(F)cccc1F)Nc1c-2cc(N2CC3CC(C2)O3)nc1C [Example 41, 3-(5-(2,6-difluorophenyl)-3,7-dimethyl-1,6-dihydropyrazolo[4,3-d]pyrido[4,3-f][1,3]diazepin-9-yl)-6-oxa-3-azabicyclo[3.1.1]heptane] | H (H (High permeability)”: A2B (B2A)>5) | N (N (Non-substrate)”: ER<2.5) | > 8.70 |  | H (H (High permeability)”: A2B (B2A)>5) | I* (I (Intermediate C1)”: 6.3 mL/min/kg≤Hep Cl≤14.7 mL/min/kg)
7 | Cc1n[nH]c2c1N=C(c1c(F)cccc1F)Nc1c-2cc(N2CCC[C@@]3(CCOC3)C2)nc1C (single isomer, unassigned) [Example 50] | H (H (High permeability)”: A2B (B2A)>5) | N (N (Non-substrate)”: ER<2.5) | > 8.70 |  | H (H (High permeability)”: A2B (B2A)>5) | I* (I (Intermediate C1)”: 6.3 mL/min/kg≤Hep Cl≤14.7 mL/min/kg)
8 | Cc1n[nH]c2c1N=C(c1c(F)cccc1F)Nc1c-2cc(N2CCO[C@@H](COC(F)(F)F)C2)nc1C [Example 48, (R)-4-(5-(2,6-difluorophenyl)-3,7-dimethyl-1,6-dihydropyrazolo[4,3-d]pyrido[4,3-f][1,3]diazepin-9-yl)-2-((trifluoromethoxy)methyl)morpholine] | M (M (Moderate permeability)”: 1≤A2B (B2A)≤5) | N (N (Non-substrate)”: ER<2.5) | > 8.70 |  | M (M (Moderate permeability)”: 1≤A2B (B2A)≤5) | I* (I (Intermediate C1)”: 6.3 mL/min/kg≤Hep Cl≤14.7 mL/min/kg)
